In PubChem BioAssay (NCI):
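GI50 is the concentration that inhibits growth by half. Definition used: TGI = concentration required for complete inhibition of growth.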

Key:
Assay in all cases: NCI anticancer screen, dose series, 384-well format
NCI-H23 lung = test system: NCI-H23 lung
TK-10 renal = test system: TK-10 renal
UACC-62 melanoma = test system: UACC-62 melanoma
786-0 renal = test system: 786-0 renal
NCI-H226 lung = test system: NCI-H226 lung
DU-145 prostate = test system: DU-145 prostate
SK-MEL-2 melanoma = test system: SK-MEL-2 melanoma
SNB-19 CNS = test system: SNB-19 CNS
HOP-92 NSCLC = test system: HOP-92 NSCLC
K-562 leukemia = test system: K-562 leukemia
UO-31 renal = test system: UO-31 renal
OVCAR-5 ovarian = test system: OVCAR-5 ovarian
ACHN renal = test system: ACHN renal
HOP-62 NSCLC = test system: HOP-62 NSCLC
OVCAR-4 ovarian = test system: OVCAR-4 ovarian
IGROV1 ovarian = test system: IGROV1 ovarian
COLO 205 colon = test system: COLO 205 colon
SN12C renal = test system: SN12C renal
M14 melanoma = test system: M14 melanoma
MDA-MB-468 breast = test system: MDA-MB-468 breast
CCRF-CEM leukemia = test system: CCRF-CEM leukemia
MCF7 breast = test system: MCF7 breast
PC-3 prostate = test system: PC-3 prostate
NCI-H322M lung = test system: NCI-H322M lung
SF-539 CNS = test system: SF-539 CNS
MDA-MB-231 breast = test system: MDA-MB-231 breast
NCI-H460 NSCLC = test system: NCI-H460 NSCLC
CAKI-1 renal = test system: CAKI-1 renal
KM12 colon = test system: KM12 colon
HL-60(TB) leukemia = test system: HL-60(TB) leukemia
NCI-H522 lung = test system: NCI-H522 lung
HT29 colon = test system: HT29 colon
SF-268 CNS = test system: SF-268 CNS
T-47D breast = test system: T-47D breast
A549 NSCLC = test system: A549 NSCLC
MDA-MB-435 melanoma = test system: MDA-MB-435 melanoma
MOLT-4 leukemia = test system: MOLT-4 leukemia
HCC-2998 colon = test system: HCC-2998 colon
RPMI-8226 leukemia = test system: RPMI-8226 leukemia
SR leukemia = test system: SR leukemia
NCI/ADR-RES ovarian = test system: NCI/ADR-RES ovarian
SNB-75 CNS = test system: SNB-75 CNS
SK-MEL-28 melanoma = test system: SK-MEL-28 melanoma
A498 renal = test system: A498 renal
HS 578T breast = test system: HS 578T breast
HCT-15 colon = test system: HCT-15 colon
SK-MEL-5 melanoma = test system: SK-MEL-5 melanoma
UACC-257 melanoma = test system: UACC-257 melanoma
LOX IMVI melanoma = test system: LOX IMVI melanoma
EKVX NSCLC = test system: EKVX NSCLC

## OCCn1cc(-c2cnc3nnn(Cc4ccc5ncccc5c4)c3n2)cn1
NCI-H23 lung
  GI50: > 100 µM
  TGI: > 100 µM
TK-10 renal
  GI50: > 100 µM
  TGI: > 100 µM
UACC-62 melanoma
  GI50: > 100 µM
  TGI: > 100 µM
786-0 renal
  GI50: > 100 µM
  TGI: > 100 µM
NCI-H226 lung
  GI50: > 100 µM
  TGI: > 100 µM
DU-145 prostate
  GI50: > 100 µM
  TGI: > 100 µM
SK-MEL-2 melanoma
  GI50: > 100 µM
  TGI: > 100 µM
SNB-19 CNS
  GI50: > 100 µM
  TGI: > 100 µM
HOP-92 NSCLC
  GI50: > 100 µM
  TGI: > 100 µM
K-562 leukemia
  GI50: > 100 µM
  TGI: > 100 µM
UO-31 renal
  GI50: > 100 µM
  TGI: > 100 µM
OVCAR-5 ovarian
  GI50: > 100 µM
  TGI: > 100 µM
ACHN renal
  GI50: > 100 µM
  TGI: > 100 µM
HOP-62 NSCLC
  GI50: > 100 µM
  TGI: > 100 µM
OVCAR-4 ovarian
  GI50: > 100 µM
  TGI: > 100 µM
IGROV1 ovarian
  GI50: > 100 µM
  TGI: > 100 µM
COLO 205 colon
  GI50: > 100 µM
  TGI: > 100 µM
SN12C renal
  GI50: > 100 µM
  TGI: > 100 µM
M14 melanoma
  GI50: > 100 µM
  TGI: > 100 µM
MDA-MB-468 breast
  GI50: > 100 µM
  TGI: > 100 µM
CCRF-CEM leukemia
  GI50: > 100 µM
  TGI: > 100 µM
MCF7 breast
  GI50: > 100 µM
  TGI: > 100 µM

## COc1cc(OC)c(F)c(COc2cnc(Nc3cnn(CCO)c3)nc2)c1F
PC-3 prostate
  GI50: 1.25 µM
  TGI: > 100 µM
NCI-H23 lung
  GI50: 0.494 µM
  TGI: 2.24 µM
NCI-H322M lung
  GI50: 1.79 µM
  TGI: > 100 µM
SF-539 CNS
  GI50: 0.34 µM
  TGI: 1.5 µM
MDA-MB-231 breast
  GI50: 0.657 µM
  TGI: > 100 µM
NCI-H460 NSCLC
  GI50: 0.353 µM
  TGI: 1 µM
CAKI-1 renal
  GI50: 0.353 µM
  TGI: 1.65 µM
KM12 colon
  GI50: 0.327 µM
  TGI: 3.41 µM
TK-10 renal
  GI50: 0.714 µM
  TGI: > 100 µM
HL-60(TB) leukemia
  GI50: 0.14 µM
  TGI: 0.272 µM
786-0 renal
  GI50: 0.425 µM
  TGI: > 100 µM
NCI-H522 lung
  GI50: 0.257 µM
  TGI: 0.658 µM
NCI-H226 lung
  GI50: 0.26 µM
  TGI: 2.29 µM
DU-145 prostate
  GI50: 1.6 µM
  TGI: > 100 µM
HT29 colon
  GI50: 0.343 µM
  TGI: 1.07 µM
SF-268 CNS
  GI50: 0.491 µM
  TGI: 3.68 µM
T-47D breast
  GI50: 0.81 µM
  TGI: > 100 µM
SNB-19 CNS
  GI50: 0.681 µM
  TGI: > 100 µM
HOP-92 NSCLC
  GI50: 0.747 µM
  TGI: 4.74 µM
A549 NSCLC
  GI50: 1.27 µM
  TGI: > 100 µM
K-562 leukemia
  GI50: 0.264 µM
  TGI: 1.1 µM
UO-31 renal
  GI50: 0.844 µM
  TGI: > 100 µM
MDA-MB-435 melanoma
  GI50: 0.177 µM
  TGI: 0.411 µM
MOLT-4 leukemia
  GI50: 0.187 µM
  TGI: 0.356 µM
ACHN renal
  GI50: 1.02 µM
  TGI: > 100 µM
OVCAR-4 ovarian
  GI50: 8.52 µM
  TGI: > 100 µM
IGROV1 ovarian
  GI50: 0.536 µM
  TGI: > 100 µM
HCC-2998 colon
  GI50: 0.751 µM
  TGI: > 100 µM
RPMI-8226 leukemia
  GI50: 0.307 µM
  TGI: 1.24 µM
COLO 205 colon
  GI50: 0.454 µM
  TGI: 3.21 µM
SR leukemia
  GI50: 0.0411 µM
  TGI: 0.165 µM
NCI/ADR-RES ovarian
  GI50: 0.442 µM
  TGI: 1.83 µM
SN12C renal
  GI50: 1.18 µM
  TGI: 6.33 µM
SNB-75 CNS
  GI50: 0.14 µM
  TGI: 0.467 µM
SK-MEL-28 melanoma
  GI50: 0.741 µM
  TGI: > 100 µM
A498 renal
  GI50: 0.355 µM
  TGI: > 100 µM
HS 578T breast
  GI50: 0.226 µM
  TGI: 0.672 µM
M14 melanoma
  GI50: 0.239 µM
  TGI: 0.709 µM
HCT-15 colon
  GI50: 0.386 µM
  TGI: > 100 µM
SK-MEL-5 melanoma
  GI50: 0.383 µM
  TGI: 1.58 µM
UACC-257 melanoma
  GI50: 2.12 µM
  TGI: > 100 µM
MDA-MB-468 breast
  GI50: 0.234 µM
  TGI: 0.514 µM
LOX IMVI melanoma
  GI50: 0.485 µM
  TGI: 3.82 µM
CCRF-CEM leukemia
  GI50: 0.204 µM
  TGI: 0.397 µM
MCF7 breast
  GI50: 0.408 µM
  TGI: > 100 µM
EKVX NSCLC
  GI50: 0.828 µM
  TGI: > 100 µM
